Assay results reported in ChEMBL document CHEMBL1268888, “Antiviral activity of 2,3'-anhydro and related pyrimidine nucleosides against hepatitis B virus” (Bioorg Med Chem Lett, 2010).
≈ marks a conversion by molar mass, not a printed value.

How the values were obtained:
[1] = Stability of the compound in fetal bovine serum at 37 degC after 24 hrs; type: ADME; settings: cattle
Hepatitis B virus [2] = assay: Antiviral activity against HBV infected in duck primary hepatocytes at 10 ug/ml; type: functional; settings: Hepatocyte
Hepatitis B virus [3] = assay: Antiviral activity against HBV infected in duck primary hepatocytes; type: functional, organism-based; settings: Hepatocyte
[4] = Stability of the compound in PBS buffer at physiological pH and 37 degC upto 48 hrs; type: physicochemical
Hepatitis B virus [5] = assay: Antiviral activity against HBV infected in human 2.2.15 cell at 10 ug/ml; type: functional, organism-based; settings: HepG2 2.2.15
[6] = Cytotoxicity against human HuH7 cells; type: cell-based, Huh-7
Hepatitis B virus [7] = assay: Antiviral activity against HBV infected in human 2.2.15 cell; type: functional, organism-based; settings: HepG2 2.2.15

Compound	Stability [1]	inhibition at 10 µg/mL (Hepatitis B virus [2]) [%]	EC50 (Hepatitis B virus [3]) [µg/mL]	Stability [4]	inhibition at 10 µg/mL (Hepatitis B virus [5]) [%]	CC50 [6] [µg/mL]	EC50 (Hepatitis B virus [7]) [µg/mL]
O=c1nc2n(cc1C(F)(F)F)[C@H]1C[C@H](O2)[C@@H](CO)O1	Stable	35	> 10	Stable	25	> 200	–
O=c1[nH]c(=O)n([C@H]2C[C@H](O)[C@@H](CO)O2)cc1C(F)(F)F [TRIFLURIDINE]	–	–	–	–	0	> 200	–
CCc1cn2c(nc1=O)O[C@H]1C[C@H]2O[C@@H]1CO	Stable	32	–	Stable	51	> 200	10 (≈ 42 µM)
CCc1cn([C@@H]2O[C@H](CO)[C@@H](O)[C@@H]2F)c(=O)[nH]c1=O	–	–	–	–	90	> 200	< 10
Cc1cn([C@H]2C[C@@H](OS(C)(=O)=O)[C@@H](CO)O2)c(=O)[nH]c1=S	–	70	2.5 (≈ 7.43 µM)	–	45	> 200	> 10
Cc1cn([C@H]2C[C@H](O)[C@@H](CO)O2)c(=O)[nH]c1=O [DOXRIBTIMINE]	–	–	–	–	0	> 200	–
CCc1cn2c(nc1=O)O[C@H]1[C@H](F)[C@H]2O[C@@H]1CO	Stable	65	2.5 (≈ 9.76 µM)	Stable	53	> 200	10 (≈ 39 µM)
O=c1ccn([C@H]2C[C@H](O)[C@@H](CO)O2)c(=O)[nH]1 [DEOXYURIDINE]	–	–	–	–	0	> 200	–
O=c1nc2n(cc1F)[C@H]1C[C@H](O2)[C@@H](CO)O1	Stable	30	–	Stable	0	> 200	–
O=c1ccn2c(n1)O[C@H]1C[C@H]2O[C@@H]1CO	Stable	67	2.5 (≈ 11.9 µM)	Stable	65	> 200	5 (≈ 23.8 µM)
CCc1cn([C@H]2C[C@H](O)[C@@H](CO)O2)c(=O)[nH]c1=O [EDOXUDINE]	–	–	–	–	40	> 200	> 10
Nc1ccn([C@@H]2CS[C@H](CO)O2)c(=O)n1 [LAMIVUDINE]	–	96	0.05 (≈ 0.218 µM)	–	88	> 200	0.2 (≈ 0.872 µM)
Cc1cn2c(nc1=O)O[C@H]1C[C@H]2O[C@@H]1CO	Stable	56	10 (≈ 44.6 µM)	Stable	54	> 200	10 (≈ 44.6 µM)
Cc1cn([C@H]2C[C@@H](O)[C@@H](CO)O2)c(=O)[nH]c1=O	–	–	–	–	–	> 200	–
